# From ChEMBL document CHEMBL1201862, “PubChem BioAssay data set” (2004)
#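 Dose response: 5 concentrations. Exposure: 48 h. Format: 96-well plates. Endpoint: linear interpolation; highest concentration if not reached. Abbreviation: GI50, concentration required for 50% inhibition of growth.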 The source made the active and inactive calls. No stated cut-off is given here; in the data, active = GI50 up to about 1.1 µM and inactive = higher.
# Tests used:
# Assay in all cases: DTP human tumour cell line panel, 48 h
# [1] = tested on: MCF7
# [2] = tested on: HCT-116
# [3] = tested on: UO-31
# [4] = tested on: UACC-257
# [5] = tested on: HOP-92
# [6] = tested on: OVCAR-5
# [7] = tested on: SK-OV-3
# [8] = tested on: HCC 2998
# [9] = tested on: SK-MEL-28
# [10] = tested on: SK-MEL-2
# [11] = tested on: LOX IMVI
# [12] = tested on: HT-29
# [13] = tested on: HOP-62
# [14] = tested on: PC-3
# [15] = tested on: SR
# [16] = tested on: OVCAR-3
# [17] = tested on: EKVX
# [18] = tested on: SNB-75
# [19] = tested on: SNB-19
# [20] = tested on: HL-60
# [21] = tested on: 786-0
# [22] = tested on: A549
# [23] = tested on: NCI-H522
# [24] = tested on: BT-549
# [25] = tested on: DU-145
# [26] = tested on: MOLT-4
# [27] = tested on: COLO 205
# [28] = tested on: SF-268
# [29] = tested on: UACC-62
# [30] = tested on: NCI/ADR-RES
# [31] = tested on: M14
# [32] = tested on: IGROV-1
# [33] = tested on: SF-539
# [34] = tested on: ACHN
# [35] = tested on: SN12C
# [36] = tested on: RXF 393
# [37] = tested on: OVCAR-8
# [38] = tested on: HCT-15
# [39] = tested on: TK-10
# [40] = tested on: NCI-H460
# [41] = tested on: MDA-MB-435
# [42] = tested on: Hs-578T
# [43] = tested on: SF-295
# [44] = tested on: CCRF-CEM
# [45] = tested on: MDA-N
# [46] = tested on: SK-MEL-5
# [47] = tested on: NCI-H226
# [48] = tested on: KM12
# [49] = tested on: MDA-MB-231
# [50] = tested on: OVCAR-4
# [51] = tested on: NCI-H23
# [52] = tested on: CAKI-1
# [53] = tested on: U-251
# [54] = tested on: SW-620
# [55] = tested on: K562
# [56] = tested on: Malme-3M
# [57] = tested on: A498
structure (smiles),measurement,setting,value
C=C(Nc1ccc([N+](=O)[O-])cc1[N+](=O)[O-])c1c/c(=N\NC(N)=S)c2ccccc2o1,GI50,[1],40.6 µM (inactive)
same,GI50,[2],33.7 µM (inactive)
same,GI50,[3],29.1 µM (inactive)
same,GI50,[4],91.6 µM (inactive)
same,GI50,[5],29 µM (inactive)
same,GI50,[6],56.9 µM (inactive)
same,GI50,[7],35.7 µM (inactive)
same,GI50,[8],95.9 µM (inactive)
same,GI50,[9],> 100 µM (inactive)
same,GI50,[10],> 100 µM (inactive)
same,GI50,[11],> 100 µM (inactive)
same,GI50,[12],87.7 µM (inactive)
same,GI50,[13],70 µM (inactive)
same,GI50,[14],26.1 µM (inactive)
same,GI50,[15],16.9 µM (inactive)
same,GI50,[16],22.7 µM (inactive)
same,GI50,[17],68.7 µM (inactive)
same,GI50,[18],74.8 µM (inactive)
same,GI50,[19],53 µM (inactive)
same,GI50,[20],32.8 µM (inactive)
same,GI50,[21],66.8 µM (inactive)
same,GI50,[22],> 100 µM (inactive)
same,GI50,[23],> 100 µM (inactive)
same,GI50,[24],> 100 µM (inactive)
same,GI50,[25],> 100 µM (inactive)
same,GI50,[26],42.4 µM (inactive)
same,GI50,[27],33.5 µM (inactive)
same,GI50,[28],> 100 µM (inactive)
same,GI50,[29],> 100 µM (inactive)
same,GI50,[30],40.9 µM (inactive)
same,GI50,[31],> 100 µM (inactive)
same,GI50,[32],36.1 µM (inactive)
same,GI50,[33],16.6 µM (inactive)
same,GI50,[34],89.5 µM (inactive)
same,GI50,[35],47.6 µM (inactive)
same,GI50,[36],60.3 µM (inactive)
same,GI50,[37],41.7 µM (inactive)
same,GI50,[38],51.9 µM
same,GI50,[39],> 100 µM (inactive)
same,GI50,[40],> 100 µM (inactive)
same,GI50,[41],81.5 µM (inactive)
same,GI50,[42],> 100 µM (inactive)
same,GI50,[43],39.5 µM (inactive)
same,GI50,[44],41.9 µM (inactive)
same,GI50,[45],> 100 µM (inactive)
same,GI50,[46],37.7 µM (inactive)
same,GI50,[47],28.2 µM (inactive)
same,GI50,[48],59.4 µM (inactive)
same,GI50,[49],26.8 µM (inactive)
same,GI50,[50],49 µM (inactive)
same,GI50,[51],81.8 µM (inactive)
same,GI50,[52],> 100 µM (inactive)
same,GI50,[53],61.1 µM (inactive)
same,GI50,[54],39.8 µM (inactive)
N#CSC#CCCC#CSC#N,GI50,[1],20.7 µM (inactive)
same,GI50,[2],22.8 µM (inactive)
same,GI50,[3],18 µM (inactive)
same,GI50,[4],16.9 µM (inactive)
same,GI50,[5],17.5 µM (inactive)
same,GI50,[6],20.6 µM (inactive)
same,GI50,[7],16.1 µM (inactive)
same,GI50,[8],17.5 µM (inactive)
same,GI50,[9],29.4 µM (inactive)
same,GI50,[10],20.3 µM (inactive)
same,GI50,[11],18.7 µM (inactive)
same,GI50,[12],21.3 µM (inactive)
same,GI50,[13],19.3 µM (inactive)
same,GI50,[14],20.9 µM (inactive)
same,GI50,[15],7.21 µM (inactive)
same,GI50,[16],21.6 µM (inactive)
same,GI50,[17],17.7 µM (inactive)
same,GI50,[19],15.5 µM (inactive)
same,GI50,[20],> 100 µM (inactive)
same,GI50,[21],20.3 µM (inactive)
same,GI50,[22],19.6 µM (inactive)
same,GI50,[23],2.2 µM (inactive)
same,GI50,[55],13.4 µM (inactive)
same,GI50,[24],21.7 µM (inactive)
same,GI50,[25],15 µM (inactive)
same,GI50,[26],2.58 µM (inactive)
same,GI50,[27],12.9 µM (inactive)
same,GI50,[28],30.1 µM (inactive)
same,GI50,[29],17 µM (inactive)
same,GI50,[30],28.2 µM (inactive)
same,GI50,[31],12.9 µM (inactive)
same,GI50,[32],20.3 µM (inactive)
same,GI50,[33],19.5 µM (inactive)
same,GI50,[34],17.5 µM (inactive)
same,GI50,[35],17.7 µM (inactive)
same,GI50,[36],18.9 µM (inactive)
same,GI50,[37],25.4 µM (inactive)
same,GI50,[38],18.2 µM
same,GI50,[39],17.9 µM (inactive)
same,GI50,[40],22.2 µM (inactive)
same,GI50,[41],23 µM (inactive)
same,GI50,[42],23.5 µM (inactive)
same,GI50,[43],18.3 µM (inactive)
same,GI50,[44],3.1 µM (inactive)
same,GI50,[45],18.2 µM (inactive)
same,GI50,[56],17.9 µM (inactive)
same,GI50,[46],18.2 µM (inactive)
same,GI50,[47],25.1 µM (inactive)
same,GI50,[48],17.7 µM (inactive)
same,GI50,[49],17.7 µM (inactive)
same,GI50,[50],27.1 µM (inactive)
same,GI50,[51],20.6 µM (inactive)
same,GI50,[52],19 µM (inactive)
same,GI50,[57],20 µM (inactive)
same,GI50,[53],16.9 µM (inactive)
same,GI50,[54],14.2 µM (inactive)
